Reference: patent US20180153830A1, “SELECTIVE INHIBITORS OF UNDIFFERENTIATED CELLS” (Yissum Research Development Company of the Hebrew …, priority 2012, published 2018)

Experiments:
Format in all cases: cell-based
[1] = system: H9 human embryonic stem cells; assay: CellTiter-Glo luminescent cell viability screen, H9; conditions: pluripotent stem cells
Experimental: (§1) 5,000 CSES2 cells were plated in 50 μl per well of mTeSR1 medium into black 384-well clear-bottom plates (Falcon BD) pre-coated with Matrigel™ using WellMate cell dispenser (Matrix, Hudson, N.H.). 24 hours after plating, medium was replaced with 25 μl of fresh medium and 25 μl of 40 μM compound medium solutions in 1% DMSO from the intermediate compound dilution plates. The plates were incubated at 37° C., in a 5% CO2 atmosphere, for the entire duration of the screen, apart from the time required for liquid handling. Cell viability was determined 24 hours after compound treatment using CellTiter-Glo® luminescent cell viability assay kits. 50 μl of CellTiter-Glo® reagent was added to each well of the assay plates and fully mixed. After incubation at room temperature for 15 minutes, 25 μl of liquid was transferred from each well into a white opaque-bottom 384-well plate (PerkinElmer), and luminescence was measured using an EnVision® plate reader (PerkinElmer). 16 neutral control wells (0.5% DMSO) and 8 positive control wells (5 μM amsacrine hydrochloride were used to normalize the compound effect. All liquid transfer steps were handled with a Biomek® FXP Laboratory Automation Workstation (Beckman Coulter, Fullerton, Calif.) and Muitidrop Combi liquid dispenser (Thermo Fisher, Waltham, Mass.). An Assay Analyzer (Genedata, Basel, Switzerland) was used for data pattern correction and calculation. The Spotfire software (Spotfire, Somerville, Mass.) was used for data illustration.
(§2) The compounds identified as hits from the primary screen were retested at a concentration of 20 μM against three pluripotent stem cell lines (CSES2, H9 and CSES2-SO2/3) for confirmation screens.
(§3) The raw intensity data for each well were background-corrected by subtraction of the median intensities across all positive control wells on the same plate, and used to calculate the inhibitory effect of each compound per cell line. A Genedata Assay Analyzer and Condoseo were used for data pattern correction, calculation and IC50 curve fitting. A Z′ factor was determined for each plate.

[2] = system: CSES2-SO2/3 embryonic stem cells; assay: CellTiter-Glo luminescent cell viability screen, CSES2-SO2/3; conditions: Homo sapiens; for EC50: 24 h; for inhibition at 20 µM: pluripotent stem cells
Experimental: as §1, §2
(§4) 696 confirmed hits from the confirmation screen were tested for profiling in a panel of 13 different cell types, using the same screening protocol described above (except in the case of embryonic stem cell-derived neural stem cells (NSCs) and mesenchymal stem cells (MSCs), for which the protocol is described below). As discussed below, compounds were tested either in dose-dependent multiple concentration manner or in single concentration manner. CSES2 and CSES2-SO2/3 cell lines and the early endodermal progenitors derived from this cell line (CSES2-SO2/3-differentiated) were screened at 8 concentrations ranging from 50 μM to 23 nM with 1:3 serial dilution steps. BJ-iPS28 cell line and the BJ fibroblasts from which it was derived were screened at 6 concentrations ranging from 50 μM to 200 nM with 1:3 serial dilution steps. Cardiomyocytes were screened in one concentration of 20 μM. HeLa and NTERA-2 cell lines were screened in duplicates of 20 μM. Kelly and Huh-7 were screened in triplicates of 20 μM. Hepatocytes were screened in duplicates of 20 μM in the original 96-well plates in which the cells arrived (40,000 cells per well, in 160 μl medium, the volumes of all reagents involved were adjusted accordingly). MSCs and NSCs were screened in duplicates of 12.5 μM.
as §3

[3] = system: ES-derived neural stem cells; assay: CellTiter-Glo counter-screen, neural stem cells; conditions: Homo sapiens, Neural stem cell
HeLa cells = assay: CellTiter-Glo counter-screen, HeLa; conditions: Homo sapiens, cancer cells
Experimental: The cervical carcinoma cell line HeLa, teratocarcinoma cell line NTERA-2, and immortalized BJ fibroblast cell line, were cultured in DMEM supplemented with 10% FBS, penicillin (50 U/ml) and streptomycin (50 μg/ml).
as §4
(§5) In order to identify highly-selective cytotoxic inhibitors of hPSCs, the 696 cytotoxic inhibitors of hPSCs identified as described in Example 1 were counter-screened as described in the Materials and Methods section against other cell types, representative of all germ layers and developmental stages. Importantly, many of these cell types were differentiated from human ES or iPS cells. The screened cell types included ES-derived neural stem cells (NSCs), ES-derived mesenchymal stem cells (MSCs), ES-derived endodermal progenitor cells, ES-derived hepatocytes, iPS-derived cardiomyocytes, iPS-derived fibroblasts of origin (BJ fibroblasts), and three cancer cell lines: neuroblastoma (Kelly), cervical cancer (HeLa) and hepatocarcinoma (Huh7). The cell types and their relationship to stem cells are depicted schematically in FIG. 14.

Huh7 cells = assay: CellTiter-Glo counter-screen, Huh7; conditions: Homo sapiens, Huh-7, cancer cells
Experimental: The hepatocarcinoma cell line Huh-7 was cultured in a DMEM/F12 (1:1) medium, supplemented with 10% FBS, penicillin (50 U/ml) and streptomycin (50 μg/ml).
as §4, §5

[4] = system: neuroblastoma (Kelly) cells; assay: CellTiter-Glo counter-screen, Kelly; conditions: Homo sapiens, cancer cells
Experimental: The neuroblastoma cell line Kelly was cultured in RPMI-1640 medium, supplemented with 15% fetal bovine serum (FBS), penicillin (50 U/ml) and streptomycin (50 μg/ml).
as §4, §5

SMILES	inhibition at 20 µM [1] [%]	EC50 [2] [µM]	inhibition at 20 µM [2] [%]	inhibition at 12.5 µM [3] [%]	inhibition at 20 µM (HeLa cells) [%]	inhibition at 20 µM (Huh7 cells) [%]	inhibition at 20 µM [4] [%]
O=C(NNc1ccccc1)c1ccncc1 [PluriSIn #1, isonicotinic acid N′-phenylhydrazide]	88.6	3.91	90.8	18.2	5.7	5.8	-2
O=C(Nc1ccccc1)n1cc(F)c(=O)[nH]c1=O [PluriSIn #2]	65.4	12.4	54.3	53.6	-2.1	-0.2	3
Nc1cc(N)cc(COc2ccc(-c3ccccc3)cc2)c1 [PluriSIn #3]	110	2.79	97.4	90.4	-4.2	-5.9	2.3
O=C(NCCc1ccc(O)cc1)c1ccc(N2CCCCC2)cc1 [PluriSIn #4]	74.1	4.71	74.5	15.5	2.2	12.1	9.4
O=S(=O)(NNc1ccccc1)c1ccc2ccccc2c1 [PluriSIn #5]	82.2	3.2	92.3	60.9	-0.6	3.6	0.2
Cc1ccc(NNC(=O)C(O)(c2ccccc2)c2cccs2)cc1 (stereo not drawn) [PluriSIn #6, 2-hydroxy-2-(thiophen-2-yl)-2-phenylacetic acid 4-methyl-N′-phenylhydrazide]	90.1	3.75	93.2	16.5	2.6	4.6	1.8
CC(=O)Oc1ccc(/C=C/c2ccc3c(c2)CCN3C)cc1 [PluriSIn #7]	109	2.74	95.4	92.8	-3.6	11.2	26.7
Cc1oc2ccccc2c1/C=N/Nc1ccccc1 [PluriSIn #8]	85.5	3.69	92.7	15	14.3	10.9	-1
C/C(=N\O)NNc1ccc(Cl)cc1 [PluriSIn #9]	101	4.61	89.2	28.9	-0.7	10.4	6
CCCCCC(=O)NNc1ccc(Cl)cc1 [PluriSIn #10]	88	2.49	95.2	23.7	3	9.3	5.7
CCOC(=O)CN1CC(=O)/C(=C\NNc2ccccc2)C1=O [PluriSIn #11]	94	3.62	92.5	17.2	-0.7	7	3.3
CCN(CC)C(=O)C(=O)c1c(-c2ccccc2)[nH]c2c1sc1ccccc12 [PluriSIn #12]	95.8	6.04	92.9	9.9	15.2	-1	-0.9
O=C1C=CC=C1/C=C/C(=N\Nc1ccccc1)c1ccccc1 [PluriSIn #13]	101	3.45	94.6	29.7	0	11.8	17.5
O=C(NN(C(=O)c1ccccc1)c1ccccc1)c1ccc(Cl)cc1 [PluriSIn #14]	79.4	5.51	90.1	18.4	-2.3	11.5	0
C(=N\C1CCC(CC2CCCCC2)CC1)/OC1CCOC1 (stereo not drawn) [PluriSIn #15]	79.5	10	72.2	70.3	17.8	22.2	9.9
